Read-outs that look alike come from different tables or passages of the source.
Columns and labels:
Factor XIa = Factor XIa (Homo sapiens, UniProt P03951); assay: Factor XIa inhibition assay utilizing a fluorophore-quencher pair peptide substrate (FLINT); assay type: biochemical; conditions: for Ki: read-out: FXIa Ki; for IC50: read-out: FXIa IC50
From the text: Biological Example 1: Factor XIa Inhibition Assay Utilizing a Fluorophore-Quencher Pair Peptide Substrate
A fluorescence intensity (FLINT) based assay was used to monitor inhibition of Factor XIa. The peptide substrate, 5Fam-KLTRAETV-K5Tamra (purchased from New England Peptide) was chosen based on the FXI sequence. Conversion of zymogen FXI to its activated form, FXIa, occurs by proteolytic cleavage by […] at two sites, Arg146 and Arg180. The custom peptide used in this assay was based on the Arg146 cleavage site of FXI. The peptide substrate was designed with a fluorophore-quencher pair, where the fluorescence is quenched until FXIa cleaves the 8-mer peptide after the Arg residue.
The Factor XIa FLINT assay was used with the following 5Fam-KLTRAETV-K5Tamra assay buffer: 50 mM Tris, pH 7.5, 100 mM NaCl, 5 mM CaCl2), 0.1 mg/mL BSA, 0.03% CHAPS. Assay buffer was prepared by mixing all ingredients fresh. 5Fam-KLTRAETV-K5Tamra peptide substrate was first prepared at 10 mM in 100% DMSO, then diluted to 3 mM in 100% DMSO. Assay buffer was then added directly to the 3 mM stock of substrate to prepare the 30 μM 2× working concentration (15 μM final concentration). The 2× Factor XIa stock solution was prepared by diluting 6.562 μM stock in 1× assay buffer for a […].
Test compound(s) were run in an 11-point, 3-fold serial dilution with a final top compound concentration of 100 nM. Final DMSO in assay was 2%. FXIa was preincubated with compound for 30-minutes and then substrate was added to initiate the reaction. The assay was run with kinetic (KIN) reads at 5 min intervals over 30 minutes. The time course was linear using […] FXIa greater than 30 minutes. More specifically, the assay was run as follows: • 100 nL of 0.01 mM test compound was dispensed into black 384-well non-binding Greiner BioOne 784900 plate for 0.1 μM final concentration; • 5 μL of 1× assay buffer was dispensed to column 24 (low control) and 5 μL 2× Factor XIa solution was dispensed to columns 1-23 (column 23 high control); • the plate was centrifuged with a “cover” plate at 500 rpm for 1 min • the plate was pre-incubated for 30 minutes at room temperature with plate covered; • 5 μL of 2×5Fam-KLTRAETV-K5Tamra peptide substrate was dispensed into the entire plate, columns 1-24; • the plate was centrifuged with a “cover” plate at 500 rpm for 1 min; • the plate was read monitoring fluorescence intensity on the BMG PHERAStar at room temperature, using fluorescence module 485 nm/520 nm.
Percent inhibition (IC50) curves were generated per compound tested, and data was analyzed using a 4-parameter logistic fit using GeneData Screener. The relative fluorescence unit (RFU) values were normalized to percent inhibition using the following equation: % inhibition=((HC−LC)−(compound−LC)/(HC−LC))*100
where LC−low control=mean signal of no Factor XIa or 100% inhibition of Factor XIa; HC−high control=mean signal of Factor XIa+5Fam-KLTRAETV-K5Tamra peptide substrate with DMSO only.
An 11-point dose response curve for the test compound(s) was generated using GENDATA to determine IC50 value based on the following equation: Y=Bottom+(Top−Bottom)/(1+10^((log IC50−X)*HillSlope))
where Y is the % inhibition in the presence of X inhibitor concentration, Top=high control=mean signal of Factor XIa+5Fam-KLTRAETV-K5Tamra peptide substrate with DMSO only; Bottom=low control−mean signal of no Factor XIa or 100% inhibition of Factor XIa; HillSlope−Hill coefficient; and IC50=concentration of compound with 50% inhibition in relation to top/high control.
(§1) Representative compounds of formula (I) of the present invention were tested according to the procedure described in Biological Example 1 and Biological Example 2 above, with results as listed in Table 3, below.

human plasma kallikrein = human plasma kallikrein (Homo sapiens, UniProt P03952); assay: Kallikrein inhibition assay utilizing a quenched AMC peptide substrate (FLINT); assay type: biochemical; conditions: 30 min preincubation, 50 μM Z-Gly-Pro-Arg-AMC, 2 nM kallikrein
From the text: Biological Example 2: Kallikrein Inhibition Assay Utilizing a Quenched AMC Peptide Substrate
A fluorescence intensity (FLINT) based assay was used to monitor inhibition of human plasma kallikrein. The peptide substrate, Z-Gly-Pro-Arg-AMC (Purchased from Bachem; Catalog #1-1150) was chosen based on its relatively low KM for kallikrein which enables running the assay at lower substrate concentrations to control background fluorescence.
The Kallikrein FLINT assay was used with the following Z-Gly-Pro-Arg-AMC assay buffer: 50 mM Tris, pH 7.5, 100 mM NaCl, 5 mM CaCl2), 0.1 mg/mL BSA, 0.03% CHAPS. Assay buffer was prepared by mixing all ingredients fresh. 2× Z-Gly-Pro-Arg-AMC peptide substrate was prepared by diluting 10 mM stock into 1× assay buffer for a 100 μM working concentration (50 μM final concentration). The 2× kallikrein stock solution was prepared by diluting 14.76 μM stock in 1× assay buffer for a 4 nM working stock solution (2 nM final concentration).
Test compound(s) were run in an 11-point, 3-fold serial dilution with a final top compound concentration of 1 μM. Final DMSO in assay was 2%. Plasma kallikrein was pre-incubated for 30-minute with compound and then 50 μM substrate was added to initiate the reaction. The assay was run with kinetic (KIN) reads at 5 min intervals over 30 minutes. The time course was linear using 2 nM kallikrein greater than 30 minutes. More specifically, the assay was run as follows: • 100 nL of 0.1 mM test compound was dispensed into black 384-well non-binding Greiner BioOne 784900 plate for 1 μM final concentration; • 5 μL of 1× assay buffer was dispensed to columns 24 (low control) and 5 μL 2× human kallikrein enzyme solution was dispensed to columns 1-23 (column 23 high control); • the plate was centrifuged with a “cover” plate at 500 rpm for 1 min • the plate was pre-incubated for 30 minutes at room temperature with plate covered; • 5 μL of 2× Z-Gly-Pro-Arg-AMC peptide substrate was dispensed into the entire plate, columns 1-24; • the plate was centrifuged with a “cover” plate at 500 rpm for 1 min; the plate was read monitoring fluorescence intensity on the BMG PHERAStar at room temperature, using fluorescence module 340 nm/440 nm.
Percent inhibition (IC50) curves were generated per compound tested, and data was analyzed using a 4-parameter logistic fit using GeneData Screener. The relative fluorescence unit (RFU) values were normalized to percent inhibition using the following equation: % inhibition=((HC−LC)−(compound−LC)/(HC−LC))*100 where LC—low control=mean signal of human kallikrein enzyme or 100% inhibition of human kallikrein enzyme; HC—high control=mean signal of […]+Z-Gly-Pro-Arg-AMC peptide substrate with DMSO only.
An 11-point dose response curve for the test compound(s) was generated using GENDATA to determine IC50 value based on the following equation: Y=Bottom+(Top−Bottom)/(1+10^((log IC50−X)*HillSlope)) • where Y is the % inhibition in the presence of X inhibitor concentration, Top=high control=mean signal of human kallikrein enzyme+Z-Gly-Pro-Arg-AMC peptide substrate with DMSO only; Bottom=low control−mean signal of no human kallikrein enzyme or 100% inhibition of human kallikrein enzyme; HillSlope—Hill coefficient; and IC50=concentration of compound with 50% inhibition in relation to top/high control.
as §1

[1] = cells that print μM themselves in the nM column
[2] = cells that print μM themselves in the nM column, same assay conditions
[3] = 30 min preincubation, 5Fam-KLTRAETV-K5Tamra substrate 15 μM final, kinetic reads

human plasma kallikrein, sequence (P03952 391-638 limits assumed): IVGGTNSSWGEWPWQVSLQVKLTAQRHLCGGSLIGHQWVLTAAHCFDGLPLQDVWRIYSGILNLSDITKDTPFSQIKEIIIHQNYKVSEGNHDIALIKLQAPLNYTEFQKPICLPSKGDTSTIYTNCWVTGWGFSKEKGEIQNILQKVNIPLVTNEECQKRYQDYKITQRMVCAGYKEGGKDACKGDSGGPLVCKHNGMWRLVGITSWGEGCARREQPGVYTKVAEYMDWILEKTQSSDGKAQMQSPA
human plasma kallikrein, sequence (P03952 20-390 partner limits assumed): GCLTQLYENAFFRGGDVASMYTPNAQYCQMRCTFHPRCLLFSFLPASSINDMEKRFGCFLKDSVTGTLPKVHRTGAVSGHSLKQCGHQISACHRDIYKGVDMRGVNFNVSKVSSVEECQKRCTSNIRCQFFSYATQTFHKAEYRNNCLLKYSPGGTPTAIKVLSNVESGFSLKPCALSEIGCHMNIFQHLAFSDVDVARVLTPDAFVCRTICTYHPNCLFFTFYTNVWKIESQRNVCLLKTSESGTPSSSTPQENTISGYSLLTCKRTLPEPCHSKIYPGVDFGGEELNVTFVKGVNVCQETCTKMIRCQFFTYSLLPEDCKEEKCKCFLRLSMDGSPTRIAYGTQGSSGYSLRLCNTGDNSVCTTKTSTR
Factor XIa, sequence (P03951 388-625 limits assumed): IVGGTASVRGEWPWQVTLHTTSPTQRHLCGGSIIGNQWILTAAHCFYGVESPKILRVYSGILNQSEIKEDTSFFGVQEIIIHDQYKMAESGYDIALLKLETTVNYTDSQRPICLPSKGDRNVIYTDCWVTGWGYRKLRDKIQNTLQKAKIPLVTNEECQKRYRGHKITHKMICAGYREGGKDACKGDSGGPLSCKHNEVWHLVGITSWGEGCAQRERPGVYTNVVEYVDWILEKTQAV
Factor XIa, sequence (P03951 19-387 partner limits assumed): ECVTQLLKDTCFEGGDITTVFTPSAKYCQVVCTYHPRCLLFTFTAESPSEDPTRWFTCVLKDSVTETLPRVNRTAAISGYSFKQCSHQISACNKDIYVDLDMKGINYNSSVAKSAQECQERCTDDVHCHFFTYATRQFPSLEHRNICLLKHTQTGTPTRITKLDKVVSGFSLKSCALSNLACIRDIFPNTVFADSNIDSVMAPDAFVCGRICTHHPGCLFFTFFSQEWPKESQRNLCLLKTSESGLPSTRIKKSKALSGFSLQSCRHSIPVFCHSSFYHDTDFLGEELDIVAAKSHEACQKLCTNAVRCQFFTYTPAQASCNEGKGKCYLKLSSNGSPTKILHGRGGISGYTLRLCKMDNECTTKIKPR

| Ki (Factor XIa; [1]) [µM] | IC50 (Factor XIa; [2]) [µM] | IC50 (human plasma kallikrein) [nM] | Ki (Factor XIa) [µM] | IC50 (Factor XIa; [3]) [µM] | Compound |
| --- | --- | --- | --- | --- | --- |
| 3.29 | 6.58 | > 10000 |  |  | Nc1ccc(-c2cnc([C@@H]3CCc4c5c(cc(=O)n43)-c3c(ccc(Cl)c3F)CC3(CC3)N(CCO)C5=O)[nH]2)c(F)n1 (single isomer, unassigned) [Compound 9, (S*)-12-(5-(6-amino-2-fluoropyridin-3-yl)-1H-imidazol-2-yl)-7-chloro-8-fluoro-2-(2-hydroxyethyl)-13,14-dihydro-2H-spiro[benzo[5,6]azocino[4,3-g]indolizine-3,1′-cyclopropane]-1,10(4H,12H)-dione] |
|  | 1.85 | > 10000 | 0.926 |  | Nc1ccc(-c2cnc([C@H]3CCc4c5c(cc(=O)n43)-c3c(ccc(Cl)c3F)CC3(CC3)N(CCO)C5=O)[nH]2)c(F)n1 (single isomer, unassigned) [Compound 10, (R*)-12-(5-(6-amino-2-fluoropyridin-3-yl)-1H-imidazol-2-yl)-7-chloro-8-fluoro-2-(2-hydroxyethyl)-13,14-dihydro-2H-spiro[benzo[5,6]azocino[4,3-g]indolizine-3,1′-cyclopropane]-1,10(4H,12H)-dione] |
|  | 1.17 | > 10000 | 0.588 |  | Nc1ccc(-c2cnc([C@@H]3CCc4c5c(cc(=O)n43)-c3c(ccc(Cl)c3F)CC3(CC3)N(CCO)C5=O)[nH]2)c(F)n1 (single isomer, unassigned) [Compound 11, (S*)-12-(5-(6-amino-2-fluoropyridin-3-yl)-1H-imidazol-2-yl)-7-chloro-8-fluoro-2-(2-hydroxyethyl)-13,14-dihydro-2H-spiro[benzo[5,6]azocino[4,3-g]indolizine-3,1′-cyclopropane]-1,10(4H,12H)-dione] |
|  |  | > 10000 | 0.0346 | 0.0692 | Nc1ccc(-c2cnc([C@H]3CCc4c5c(cc(=O)n43)-c3c(ccc(Cl)c3F)CC3(CC3)N(CCO)C5=O)[nH]2)c(F)n1 (single isomer, unassigned) [Compound 12, (R*)-12-(5-(6-amino-2-fluoropyridin-3-yl)-1H-imidazol-2-yl)-7-chloro-8-fluoro-2-(2-hydroxyethyl)-13,14-dihydro-2H-spiro[benzo[5,6]azocino[4,3-g]indolizine-3,1′-cyclopropane]-1,10(4H,12H)-dione] |
|  |  | 70 | 0.001 | 0.002 | O=C1NC2(CC2)Cc2ccc(Cl)c(F)c2-c2cc(=O)n3c(c21)CC[C@H]3c1ncc(-c2ccc3[nH]ccc3c2)[nH]1 (single isomer, unassigned) [Compound 13, (S*)-12-(5-(1H-indol-5-yl)-1H-imidazol-2-yl)-7-chloro-8-fluoro-13,14-dihydro-2H-spiro[benzo[5,6]azocino[4,3-g]indolizine-3,1′-cyclopropane]-1,10(4H,12H)-dione] |
| 1.02 | 2.03 | > 10000 |  |  | O=C1NC2(CC2)Cc2ccc(Cl)c(F)c2-c2cc(=O)n3c(c21)CC[C@@H]3c1ncc(-c2ccc3[nH]ccc3c2)[nH]1 (single isomer, unassigned) [Compound 14, (R*)-12-(5-(1H-indol-5-yl)-1H-imidazol-2-yl)-7-chloro-8-fluoro-13,14-dihydro-2H-spiro[benzo[5,6]azocino[4,3-g]indolizine-3,1′-cyclopropane]-1,10(4H,12H)-dione] |
|  | 1.07 | > 10000 | 0.535 |  | O=C1NC2(CC2)Cc2ccc(Cl)c(F)c2-c2cc(=O)n3c(c21)CC[C@H]3c1ncc(-c2ccc3[nH]ccc3c2)[nH]1 (single isomer, unassigned) [Compound 16, (S*)-12-(5-(1H-indol-5-yl)-1H-imidazol-2-yl)-7-chloro-8-fluoro-13,14-dihydro-2H-spiro[benzo[5,6]azocino[4,3-g]indolizine-3,1′-cyclopropane]-1,10(4H,12H)-dione] |
|  | 1.59 | > 10000 | 0.796 |  | O=C1NC2(CC2)Cc2ccc(Cl)c(F)c2-c2cc(=O)n3c(c21)CC[C@@H]3c1ncc(-c2ccc3[nH]ccc3c2)[nH]1 (single isomer, unassigned) [Compound 17, (R*)-12-(5-(1H-indol-5-yl)-1H-imidazol-2-yl)-7-chloro-8-fluoro-13,14-dihydro-2H-spiro[benzo[5,6]azocino[4,3-g]indolizine-3,1′-cyclopropane]-1,10(4H,12H)-dione] |
| 3.83 | 7.65 | > 10000 |  |  | CC1(C)Cc2ccc(Cl)c(F)c2-c2cc(=O)n3c(c2C(=O)N1)CC[C@H]3c1ncc(-c2ccc(N)nc2F)[nH]1 (single isomer, unassigned) [Compound 20, (S*)-12-(5-(6-amino-2-fluoropyridin-3-yl)-1H-imidazol-2-yl)-7-chloro-8-fluoro-3,3-dimethyl-3,4,13,14-tetrahydrobenzo[5,6]azocino[4,3-g]indolizine-1,10(2H,12H)-dione] |
